In ChEMBL document CHEMBL2375345, “New antiprotozoal agents: their synthesis and biological evaluations” (Bioorg Med Chem Lett, 2013):

What was measured:
[1] = Selectivity index, ratio of CC50 for human MRC5 cells to IC50 for amastigote form of Leishmania infantum MHOM/MA(BE)/67; assay type: functional
[2] = Selectivity index, ratio of CC50 for human MRC5 cells to IC50 for trypomastigote form of Trypanosoma brucei rhodesiense STIB900; assay type: functional
[3] = Selectivity index, ratio of CC50 for human MRC5 cells to IC50 for trypomastigote form of Trypanosoma brucei brucei 427; assay type: functional
[4] = Selectivity index, ratio of CC50 for human MRC5 cells to IC50 for epimastigote form of Trypanosoma cruzi Tulahuen 2; assay type: functional
[5] = Lipophilicity, log P of the compound; assay type: physicochemical; settings: octanol/water
[6] = Cytotoxicity against human MRC5 cells assessed as cell viability after 7 days by Alamar blue assay; assay type: cell-based
Leishmania infantum = assay: Antiprotozoal activity against amastigote form of Leishmania infantum MHOM/MA(BE)/67 infected in mouse peritoneal macrophages assessed as reduction of intracellular parasite burden after 5 days by Giemsa staining method; assay type: functional, organism-based; settings: MHOM/MA(BE)/67, 120 h
Trypanosoma cruzi = assay: Antiprotozoal activity against epimastigote form of Trypanosoma cruzi Tulahuen 2 assessed as parasite growth inhibition measured at day 5; assay type: functional, organism-based; settings: Tulahuen 2, 120 h
[7] = test system: Trypanosoma brucei brucei; assay: Antiprotozoal activity against trypomastigote form of Trypanosoma brucei brucei 427 assessed as parasite growth inhibition; assay type: functional, organism-based
[8] = test system: Trypanosoma brucei rhodesiense; assay: Antiprotozoal activity against trypomastigote form of Trypanosoma brucei rhodesiense STIB900 assessed as parasite growth inhibition after 72 hrs by Alamar blue assay; assay type: functional, organism-based; settings: STIB900, 72 h

Structure (SMILES)	Ratio CC50/IC50 [1]	Ratio CC50/IC50 [2]	Ratio CC50/IC50 [3]	Ratio CC50/IC50 [4]	logP [5]	CC50 at 168 h [6] [µM]	IC50 (Leishmania infantum) [µM]	IC50 (Trypanosoma cruzi) [µM]	IC50 [7] [µM]	IC50 [8] [µM]
CC(=O)OC1(C)c2ccccc2-c2c1c(-n1ccnc1)nc1ccc(Br)cc21 (stereo not given)	1.52	4.53	1.11	34.65	4.09	32.2	21.1	0.93	29	7.11
CSCCC(NC(=O)OC(C)(C)C)C(=O)O/N=C1\c2ccccc2-c2c1c(N1CCN(c3ccccn3)CC1)nc1ccc(Br)cc21 (stereo not given)	6.73	44.44	26.66	8.66		64	9.51	7.39	2.4	1.44
COc1cccc(NC(=O)Nc2ccc3nc(Oc4ccc(F)cc4C(C)O)c(Cc4ccccc4)cc3c2)c1 (stereo not given)		30.18			6.72	64	8.11	6.23	2.04	2.07
CC(C)CC(NC(=O)OCC1c2ccccc2-c2ccccc21)C(=O)O/N=C1\c2ccccc2-c2c1c(N1CCN(c3ccccn3)CC1)nc1ccc(Br)cc21 (stereo not given)	4.28	8.94	1.85	1.8	8.3	13.6	3.17	7.52	7.33	1.52
CC(C)(C)OC(=O)N1CCCC1C(=O)O/N=C1\c2ccccc2-c2c1c(-n1ccnc1)nc1ccc(Br)cc21 (stereo not given)	0.63	1.85	1.09	1.08		8	12.7	7.38	7.31	4.33
CC1(O)c2ccccc2-c2c1c(-n1ccnc1)nc1ccc(Br)cc21 (stereo not given)	0.9	1.93	0.61	8.23	3.86	11.5	12.7	1.39	18.8	5.93
CC(C)(C)OC(=O)NC(C(=O)O/N=C1\c2ccccc2-c2c1c(N1CCN(c3ccccn3)CC1)nc1ccc(Br)cc21)C(C)(C)C (stereo not given)	6.29	26.17	16.48	4.52		35.6	5.66	7.87	2.16	1.36
COc1nc2ccc(Br)cc2c2c1C(C)(OCC(O)Cn1ccc(-c3cccc(C(F)(F)F)c3)n1)c1ccccc1-2 (stereo not given)	4.74	19.29	10.43	4.5	7.5	24.1	5.08	5.35	2.31	1.25
COc1ccc(-c2ccn(CC(O)c3cc(F)ccc3Oc3nc4ccc([N+](=O)[O-])cc4cc3Cc3ccccc3)n2)cc1 (stereo not given)	3.15	31.52	31.37	33.16			20.3	64	2.12	0.71
CC(NC(=O)OC(C)(C)C)C(=O)O/N=C1\c2ccccc2-c2c1c(N1CCN(c3ccccn3)CC1)nc1ccc(Br)cc21 (stereo not given)	3.86	16.3	13.19	4.33		26.9	6.96	6.21	2.04	1.65
COc1ccc(NC(=S)Nc2ccc3nc(Oc4ccc(F)cc4C(C)O)c(Cc4ccccc4)cc3c2)cc1 (stereo not given)	7.89	30.91	31.37	10.27	7.86	42.3	8.11	5.81	2.09	1.31
COc1cccc(N2CCN(CC(O)COC3(C)c4ccccc4-c4c3c(N3CCN(C(c5ccccc5)c5ccccc5)CC3)nc3ccc(Br)cc43)CC2)c1 (stereo not given)	2.04	71.44	30.26	0.96		61.4	30.1	64	2.03	0.86
O=C1c2ccccc2-c2c1c(N1CCN(c3ccccn3)CC1)nc1ccc(Br)cc21	0.21	0.72	0.56	0.63	6.01	4.33	20.3	6.87	7.69	5.98
COc1nc2ccc(Br)cc2c2c1C(C)(OCC(O)CN1CCN(C(c3ccccc3)c3ccccc3)CC1)c1ccccc1-2 (mixture of isomers)	2.16	10.7	8.6	3	7.56	17.6	8.11	5.85	2.04	1.64
COc1nc2ccc(Br)cc2c2c1C(C)(OCC(O)Cn1ccnc1)c1ccccc1-2 (stereo not given)	1.33	6.83	3.94	3.7	3.68	8	6.01	2.16	2.03	1.17
COc1cccc(-c2ccn(CC(O)c3cc(F)ccc3Oc3nc4ccc([N+](=O)[O-])cc4cc3Cc3ccccc3)n2)c1 (stereo not given)		30.8				64	8	6.01	2.4	2.08
COc1ccccc1NC(=O)NCC(O)COC1(C)c2ccccc2-c2c1c(OC)nc1ccc(Br)cc21 (stereo not given)	0.56	2.82	0.64	2.12	4.84	5.31	9.51	2.5	8.23	1.88
COc1ccccc1NC(=S)Nc1ccc2nc(Oc3ccc(F)cc3C(C)O)c(Cc3ccccc3)cc2c1 (stereo not given)	5.22	32.31			7.86	16	5.28	4.33	1.79	0.53
OC(c1ccccc1)c1c(C(F)(F)F)nc2ccc(Br)cc2c1Br (stereo not given)	0.19	0.25	0.2	0.19	6.26	1.51	8.11	8.07	7.52	5.94
COc1nc2ccc(Br)cc2cc1C(c1ccccc1)n1cnc([N+](=O)[O-])c1 (stereo not given)	1.25	145.45	29.62	9.19		64	50.8	6.96	2.16	0.44
CC(C)(C)OC(=O)N1CCCC(C(=O)O/N=C2\c3ccccc3-c3c2c(C(F)(F)F)nc2ccc(Br)cc32)C1 (stereo not given)	0.72	1.91	0.77	0.47		5.84	8.11	12.3	7.56	3.06
CC(C)(C)OC(=O)NCC(=O)O/N=C1\c2ccccc2-c2c1c(N1CCN(c3ccccn3)CC1)nc1ccc(Br)cc21	12.6	53.33	10.58	9.38		64	5.08	6.82	6.05	1.2
CC(c1cc(F)ccc1Oc1nc2ccc(-n3cc(-c4ccccc4)nn3)cc2cc1Cc1ccccc1)n1ccnc1 (stereo not given)	3.15		30.18		7.91	64	20.3	1.93	2.04	2.03
COc1cccc(NC(=S)Nc2ccc3nc(Oc4ccc(F)cc4C(C)O)c(Cc4ccccc4)cc3c2)c1 (stereo not given)	8		26.66		7.86	64	6.82	14.7	2	0.53
CCCC(=O)O/N=C1\c2ccccc2-c2c1c(-n1ccnc1)nc1ccc(Br)cc21	1.37	1.6	1	3.45		8.23	6.01	2.38	8.17	5.14
CC(O)c1cc(F)ccc1Oc1nc2ccc(NS(=O)(=O)c3cccc(C(F)(F)F)c3)cc2cc1Cc1ccccc1 (stereo not given)					7.69	8	8.11	3.7	2.18	1.46
O=[N+]([O-])c1ccc2nc(Oc3ccc(F)cc3C(O)CN3CCCCC3)c(Cc3ccccc3)cc2c1 (stereo not given)	1.29	8.8	4.31	2.2			2.16	2	2.01	1.22
